How the values were obtained:
[1] = tested on: PAF-induced platelet aggregation (platelet-rich plasma); assay: PAF antagonism, in vitro platelet aggregation assay; type: cell-based; details: dose giving 50 % PAF antagonism, human PRP, PAF 1-5×10^-8 M
Experimental: Blood was centrifuged at 110×g for 15 min. and the supernatant PRP carefully transferred into a polypropylene tube. Platelet-poor-plasma (PPP) was prepared by centrifuging PRP at 12,000×g for 2 min. in a Beckman Microfuge B. PRP was used within 3 hours of drawing the blood.
Platelet Aggregation Assay: When an aggregating agent such as PAF is added to PRP, platelets aggregate. An aggregometer quantifies this aggregation by measuring light (infra-red) transmission through PRP and comparing to PPP. The aggregation assays were performed using a dual-channel aggregometer (Model 440, Chrono-Log Corp., Hayertown, Pa.). PRP (0.45 ml) in aggregometer curettes was continually stirred (37° C.). Solutions of test compounds or vehicle were added to the PRP, and after incubation for 2 min., 10-15 μl aliquots of PAF solution were added so as to achieve a final concentration of 1-5×10^-8 M. Incubations were continued until the increase in light transmission reached a maximum (usually about 2 min). Values for inhibition were calculated by comparing maximal aggregation obtained in the absence and the presence of the compound. For each experiment, a standard PAF antagonist, such as alprazolam, was used as a positive internal control. […] The test results are shown below in Tables Ia, Ib and Ic.

[2] = tested on: histamine-induced lethality; assay: Antihistamine activity: prevention of histamine-induced lethality in guinea pigs; type: in vivo; details: Cavia porcellus, guinea pig; for responders at 5 mg/kg: oral dose 5 mg/kg PO
Experimental: C. ANTIHISTAMINE ACTIVITY ASSAY
Prevention of Histamine-Induced Lethality in Guinea Pigs. Some of compounds shown below in Table I also were evaluated for antihistamine activity by their ability to protect female albino guinea pigs (250-350 g) against death induced by the intravenous injection of histamine dihydrochloride at 1.1 mg/kg, which is approximately twice the LD99. Doses of the antagonists were administered orally to separate groups of fasted animals 1 hour prior to the challenge with histamine and protection from death recorded for 30 minutes after histamine. ED50 values were determined for each drug by probit analysis.

PAF-induced bronchospasm = PAF-induced bronchospasm in guinea pigs; type: in vivo; details: guinea pig
Experimental: PAF is also a known bronchoconstrictive agent in mammals.
B. PAF-INDUCED BRONCHOSPASM IN GUINEA PIGS
Non-sensitized guinea Digs were fasted overnight, and the following morning were anesthetized with 0.9 ml/kg i.p. of dialurethane (0.1 g/ml of diallybarbituric acid, 0.4 g/ml of ethylurea and 0.4 g/ml of urethane). The trachea was cannulated and the animals were ventilated by a Harvard rodent respirator at 55 strokes/min. with a stroke volume of 4 ml. A side arm to the tracheal cannula was connected to a Harvard pressure transducer to obtain a continuous measure of intratracheal pressure, which was recorded on a Harvard Polygraph. The jugular vein was cannulated for the administration of compounds. The animals were challenged i.v. with PAF (0.4 ug/kg in isotonic saline containing 0.25% BSA) and the peak increase in inflation pressure that occurred within 5 min. after challenge was recorded. Test compounds were administered either orally (2 hrs. prior to PAF as a suspension in 0.4% methylcellulose vehicle) or intravenously (10 min. prior to PAF as a solution in dimethylsulfoxide).

[3] = CNS activity: antagonism of electro-convulsive shock (ECS); details: mouse, in vivo; mice, oral, one hour before ECS; read-out: ECS test ED50
Experimental: F. Antagonism of Electro-Convulsive Shock (ECS). The ECS test is a third test useful for determining CNS activity. […] One hour after oral administration of the test drug or vehicle, mice were administered a 13 mA, 60 cycle a.c. electroconvulsant shock (ECS) for 0.2 seconds via corneal electrodes.

[4] = CNS activity: antagonism of physostigmine lethality; details: mouse, in vivo; mice, oral, 30 minutes prior to physostigmine 1.0 mg/kg s.c.
Experimental: D. Antagonism of Physostigmine Lethality. The physostigmine-induced lethality test is indicative of CNS activity and the test described is a modification of the technique reported by COLLIER et al., Br. J. Pharmac., 32, 295-310 (1968). physostigmine salicylate (1.0 mg/kg s.c.) produces 100% lethality when administered to mice grouped 10 per plastic cage (11×26×13 cm). Test agents were administered orally 30 minutes prior to physostigmine. The number of survivors were counted 20 minutes after physostigmine administration.

[5] = CNS activity: antagonism of acetic acid writhing; details: mouse, in vivo; mice, oral, 15 minutes before acetic acid i.p.
Experimental: E. Antagonism of Acetic Acid Writhing. The acetic acid writhing test is a second test useful for determining CNS activity, and is essentially that described by HENDERSHOT and FORSAITH, J. Pharmac. […] Mice were injected with 0.6% aqueous acetic acid at 10 mg/kg i.p. 15 minutes after oral administration of the test drug. The number of writhes for each animal was counted during a 10 minute period starting 3 minutes after acetic acid treatment. A writhe was defined as a sequence of arching of the back, pelvic rotation and hind limb extension.

[6] = 0.5 h, 1 hour before histamine 1.1 mg/kg i.v., read-out: Antihistaminic Activity, % Survival

| SMILES | IC50 [1] | responders at 5 mg/kg [2, 6] | inhibition of PAF-induced bronchospasm (PAF-induced bronchospasm; 3 mg/kg (iv)) | ED50 [3] | ED50 ([2]; oral, probit analysis, read-out: Antihistaminic Activity, ED50) | ED50 [4] | ED50 [5] | responders at 1 mg/kg ([2]; 0.5 h, oral dose 1 mg/kg PO, 1 hour before histamine 1.1 mg/kg i.v., read-out: Antihistaminic Activity, % Survival) | inhibition of PAF-induced bronchospasm (PAF-induced bronchospasm; 1 mg/kg intravenously) |
| --- | --- | --- | --- | --- | --- | --- | --- | --- | --- |
| CC(=O)N1CCC(=C2c3cc(F)ccc3CCc3cccnc32)CC1 [R = CH3, Z = O, R^3 = H, R^4 = F, 9-fluoro-11-(1-acetyl-4-piperidylidene)-6,11-dihydro-5H-benzo[5,6]cyclohepta[1,2-b]pyridine] | 0.9 µM | 0% | 97% |  |  |  |  |  |  |
| CN1CCC(=C2c3ccccc3CCc3cccnc32)CC1 [R^3 = H, R^4 = H, A = H, CZR = CH3, reference compound] | > 100 µM |  |  | > 80 mg/kg | 0.009 mg/kg | 6.1 mg/kg | 8.9 mg/kg |  |  |
| CC(=O)N1CCC(=C2c3ccc(Cl)cc3CCc3cccnc32)CC1 [Z = O, R = CH3, R^3 = Cl, R^4 = H, 8-chloro-11-(1-acetyl-4-piperidylidene)-6,11-dihydro-5H-benzo[5,6]cyclohepta[1,2-b]pyridine] | 0.7 µM | 100% |  | > 320 mg/kg |  |  | > 160 mg/kg | 60% | 75% |
